Data set [1] deals with panel of cancer cell-lines. The data set is described as follows: MTS cell survival assay, panel of cancer cell-lines. In kind it is cell-based. The conditions noted are these: for IC50: MTS. As for the experimental part: The antitumor range of action of CX-3543 was tested in vitro using a panel of cancer cell-lines and evaluated using an MTS cell survival assay. Cells were exposed to CX3543 at various concentrations over a four day period, and IC50 values were calculated. Generally, 2,000 to 5,000 cells were seeded in each well of a 96-well plate and incubated overnight. A serial dilution of testing compounds was added to cells and further incubated for 4 days at 37° C., in a 5% CO2 humidified incubator. The survival cell numbers were evaluated by the MTS method as described in the manufacturer's protocol (Promega). […] In particular examples, IC50 values were measured by Alamar Blue.
For orientation: Tetrazolium dyes change colour on reduction, which living cells bring about.

Data set [2] relates to Escherichia coli (WP2-uvrA−). The data set is described as follows: Bacterial mutagenicity test (Ames assay). As to conditions: E. coli WP2-uvrA−, with and without S9. As for the experimental part:
The test article was dissolved in 5% dextrose.
The pH was then adjusted to 3.53.
94720. […] (ATCC numbers: 29629 and 49979, respectively).
Genotype tests were performed.
Both endpoints serve as toxicity indicators in this assay.

A short description of data set [3]: Subacute study of intravenously administered CX-3543 in dogs (safety and tolerance). Type of data set: in vivo. How it is done: This study determines the safety and tolerance of CX-3543 at three dose levels administered intravenously once daily to beagle dogs for five consecutive days. Safety parameters were monitored through observation, clinical pathology, and microscopic histopathology assessments. Selected animals also underwent blood sample collection for pharmacokinetic/toxicokinetic evaluation. All animals were also assessed with ECG evaluations to detect heart rhythm and/or conduction abnormalities.
The study was conducted using three (3) test article and one (1) control article group. The control article was the solution (5% dextrose in water) used to dilute the test article prior to administration and was administered at the same volume as the high dose. The test article dosage levels for this study were approximately 12, 3.8, and 1.2 mg/kg. Test and control articles were administered once by intravenous (IV) infusion over approximately a one hour period on five consecutive days. Blood samples for test article blood level analysis was taken as follows (i.e., pk/tk sampling): approximately 1 mL of blood was taken from three male and three female dogs in the low dose group at approximately 20 minutes and 40 minutes from the start of the infusion, and then at the end of infusion (Time 0) and at 5, 10, 15, and 30 minutes, and 1, 2, 4, 8, 12, and 24 hours from the end of the infusion after the first and fifth doses. Also, prior to and immediately after Dose 1 and after Dose 5 for all animals, and for recovery animals prior to necropsy, approximately 5-10 second ECG tracings in a lead II configuration were obtained. Animals were terminated one (1) or 15 days after the last dose. […]
Clinical Pathology: After overnight fasting and prior to the first dose (baseline; all animals) and then prior to each necropsy, blood samples are taken for hematology and clinical chemistry. For hematology assays, blood collected at baseline and prior to necropsy (fasted) are analyzed for erythrocyte count, hematocrit, MCH, leukocyte count, differential WC, MCHC, hemoglobin, MCV, platelet count, PT, and APTT. […]

Data set [4] has as its system HCT-116 cells. The data set is described as follows: DNA cell cycle analysis. Type of data set: cell-based. As to conditions: serum-starved HCT-116 cells, 24 hr, 1 to 5 um. How it is done: The following protocol was followed in this example. Seed 1.5-2.0×10^6 cells/10 cm dish (seed one extra dish for unstained cells). Incubate cells in 37° C. humidified 5% CO2 incubator for 24 hours. For synchronizing cells in a low growth state to make cells quiescent, remove media and rinse once with serum-free media, add 10 ml of serum-free media to each dish. Incubate the cells for 24 hr in a 37° C. humidified 5% CO2 incubator. Remove media and add treatment (diluted in serum contained media, 10 ml): 1-5 μM CX-3543 plus control. Incubate the cells for 24 hr in a 37° C. humidified 5% CO2 incubator.
To trypsinize/isolate cells, remove treatment. Add 3 ml trypsin/EDTA solution. Keep floating cells and combine with attached cells. Incubate for 5 min in a 37° C. humidified 5% CO2 incubator. Add 3 ml media (containing FBS) to wells and pipette into centrifuge tube. Centrifuge at 1000 rpm for 5 minutes. Decant supernatant and re-suspend pellet in 2-3 ml PBS. Count cells and wash cells once by putting 2×10^6 cells/tube, adding 2 ml PBS and centrifuging at 1000 rpm for 5 minutes. Re-suspend pelleted cells in 0.3 ml cold PBS.
To fix cells, gently add 0.7 ml ice cold 70% ethanol drop wise to tube containing 0.3 ml of cell suspension in PBS while vortexing. Leave on Ice for one hour (or up to a few days at 4C). Centrifuge at 1000 rpm for 5 minutes. Wash one time with cold PBS (1-2 ml). […]

Data set [5] has as its target c-Myc template DNA (c-myc quadruplex). The data set is described as follows: Quadruplex binding / stop assay (Taq polymerase arrest, capillary electrophoresis). As to conditions: read-out: IC50 value in the stop assay; arrest product/full-length product ratio 1:1; FIG. 2.

Consider `CN1CCCC1CCNC(=O)c1cn2c3c(c(N4CCC(c5cnccn5)C4)c(F)cc3c1=O)Oc1cc3ccccc3cc1-2` (stereo not drawn) [CX-3543], for which the IC50 (usually the midpoint of a concentration-inhibition curve) in data set [1] (96 h, PC3 (Prostate), 4 days) is 3.2 µM; in data set [1] (Homo sapiens, 786-0, 96 h, 786-O, 4 days), 2.1 µM; in data set [1] (Homo sapiens, 96 h, A549, 4 days), 2.9 µM; in data set [1] (Homo sapiens, 96 h, HCT-116 (Colorectal), 4 days), 3.3 µM; in data set [1] (Homo sapiens, 96 h, HT-29, 4 days), 5.5 µM; in data set [1] (Homo sapiens, 96 h, HeLa (cervical), 4 days) it was 3.3 µM. Besides, the 50% inhibitory concentration (IC50) in data set [1] (Homo sapiens, 96 h, HepG2, 4 days) came out at 2.5 µM; in data set [1] (Homo sapiens, 96 h, MDA-MB-231 (Breast), 4 days), 2.4 µM; in data set [1] (Homo sapiens, 96 h, MDA-MB-468 (Breast), 4 days), 1.5 µM; in data set [1] (Homo sapiens, 96 h, Ramos (Burkitt's Lymphoma), 4 days), 0.3 µM; in data set [1] (Homo sapiens, MIA PaCa-2, 96 h, MiaPaca, 4 days), 2.8 µM; in data set [5], 1 µM. Further, the “IC50 in MTS assays over a broad range of tumor types” value in data set [1] (four day exposure) was “submicromolar to single digit micromolar”. Besides, the “mutagenicity (reversion rates)” value in data set [2] is on record as “non-mutagenic”. Moreover, in data set [3] (dog, in vivo), the mortality result is recorded as “no mortality”. In addition, the tolerance entry in data set [3] (dogs, five consecutive daily doses at 12, 3.8 or 1.2 mg/kg, IV one-hour infusion, except injection-site inflammation and necrosis) is reported as “toxicologically well tolerated”. For the same molecule, the ECG monitoring result in data set [3] (dogs, pre and post doses 1 and 5) was “No abnormalities were detected”. Moreover, the “effect on the distribution of cells throughout the cell cycle” value in data set [4] is recorded as “no observable effect”.

For the origin of these results see US7507727B2, “Substituted quinobenzoxazine analogs and methods of using thereof” (Cylene Pharmaceuticals, Inc., priority 2003, dated 2009).
